Reference: patent US20090270363A1, “2-Aryl- and 2-Heteroarylthiazolyl Compounds, Methods for Their Preparation and Use Thereof” (Wyeth, priority 2008, published 2009)

Assays:
[1] = system: Xenografts of a Human Breast Carcinoma Cell Line (MDA-MB-361); experiment: Tumor xenograft study versus Vincristine (Table 3); format: in vivo; conditions: days 2 through 21
Method: (§1) Selected fused bicyclic 2-aryl- or 2-heteroarylthiazolyl compounds of formula I were tested for their activity in a securin parental cell line (HCT116 FB) and a securin knockout (KO) cell line. […] The in-vivo activity of selected fused bicyclic 2-aryl- or 2-heteroarylthiazolyl compounds of formula I was studied in cells growing as xenografts in athymic (nude) mice. The effect of Examples 164, 166 and 167 was studied in xenografts of a human breast carcinoma cell line (MDA-MB-361).
(§2) In-vivo Activity in Tumor Xenografts. […] The fused bicyclic 2-arylthiazolyl compounds were formulated using 0.5% Methocel™ (methylcellulose) and 0.4% Tween 80™ (polysorbate-80 and oleic acid) and administered daily orally (PO), by gavage or by syringe. Tumor mass [(length×width^2)/2] was determined every 7 days. Inhibition of tumor growth was calculated relative to conventional (vehicle treated) controls.
The effectiveness of Examples 164, 166 and 167 versus Vincristine at controlling tumor growth was studied and the results are summarized in Table 3 and FIG. 2.

[2] = system: securin "knock out" cells D8 (Securin-/-); experiment: Growth inhibition (sulforhodamine B, 5 days) of securin knock out cells D8; format: cell-based; conditions: for IC50: 120 h, securin knock out D8 cells, 5 days, SRB; for Selectivity Ratio D8: IC50 HCT116 / IC50 securin KO D8
[3] = system: securin "knock out" cells F3 (Securin-/-); experiment: Growth inhibition (sulforhodamine B, 5 days) of securin knock out cells F3; format: cell-based; conditions: for IC50: 120 h, securin knock out F3 cells, 5 days, SRB; for Selectivity Ratio F3: IC50 HCT116 / IC50 securin KO F3
[4] = system: HCT116 cells (Securin+/+, securin parental, HCT116 FB); experiment: Growth inhibition (sulforhodamine B, 5 days) of securin parental cells; format: cell-based; conditions: Homo sapiens, HCT-116, 120 h, SRB
[5] = system: Xenografts of a Human Breast Carcinoma Cell Line (MDA-MB-361); experiment: Tumor xenograft study versus Herceptin (Table 2); format: in vivo
Method: as §1, §2

[6] = 20 mg/kg/dose PO, days 1 through 20
[7] = 25 mg/kg/dose IP, days 1, 3, 5 ... 19

SMILES: CN(C)c1ccc(-c2nc3c(s2)C(O)CCC3)cc1 (centres unmarked) [Example 166, 2-[4-(dimethylamino)phenyl]-4,5,6,7-tetrahydro-1,3-benzothiazol-7-ol]
- % T/C Day 8 ([1]; 10 mg/kg/dose PO): 60%
- % T/C Day 15 ([1]; 10 mg/kg/dose PO): 60%
- % T/C Day 22 ([1]; 10 mg/kg/dose PO): 100%
- Relative Tumor Growth Day 8 ([1]; 10 mg/kg/dose PO): 3.16
- Relative Tumor Growth Day 15 ([1]; 10 mg/kg/dose PO): 7.40
- Relative Tumor Growth Day 22 ([1]; 10 mg/kg/dose PO): 22.01
- % T/C Day 8 ([1]; 30 mg/kg/dose PO): 55%
- % T/C Day 15 ([1]; 30 mg/kg/dose PO): 59%
- % T/C Day 22 ([1]; 30 mg/kg/dose PO): 98%
- Relative Tumor Growth Day 8 ([1]; 30 mg/kg/dose PO): 2.87
- Relative Tumor Growth Day 15 ([1]; 30 mg/kg/dose PO): 7.34
- Relative Tumor Growth Day 22 ([1]; 30 mg/kg/dose PO): 21.48
- % T/C Day 8 ([1]; 40 mg/kg/dose PO): 33%
- % T/C Day 15 ([1]; 40 mg/kg/dose PO): 35%
- % T/C Day 22 ([1]; 40 mg/kg/dose PO): 53%
- Relative Tumor Growth Day 8 ([1]; 40 mg/kg/dose PO): 1.72
- Relative Tumor Growth Day 15 ([1]; 40 mg/kg/dose PO): 4.29
- Relative Tumor Growth Day 22 ([1]; 40 mg/kg/dose PO): 11.74
- Relative Tumor Growth Day 29 ([1]; 40 mg/kg/dose PO): 7.65
- % T/C Day 8 ([1]; 50 mg/kg/dose PO): 58%
- % T/C Day 15 ([1]; 50 mg/kg/dose PO): 62%
- Relative Tumor Growth Day 8 ([1]; 50 mg/kg/dose PO): 3.04
- Relative Tumor Growth Day 15 ([1]; 50 mg/kg/dose PO): 7.67
- Relative Tumor Growth Day 22 ([1]; 50 mg/kg/dose PO): Toxic
- S/T = # of Survivors/# of Treated on Day +36 ([1]; 50 mg/kg/dose PO, * = sacrificed earlier due to tumor size): 0/5
- IC50 [2]: 1.7 µM
- Selectivity Ratio D8 [2]: 30
- IC50 [3]: 3.5 µM
- Selectivity Ratio F3 [3]: 15
- IC50 [4]: 52.5 µM
- % T/C Day 7 [5, 6]: 69%
- % T/C Day 14 [5, 6]: 126%
- % T/C Day 21 [5, 6]: 102%
- Relative Tumor Growth Day 7 [5, 6]: 1.33
- Relative Tumor Growth Day 14 [5, 6]: 4.05
- Relative Tumor Growth Day 21 [5, 6]: 10.76
- S/T = # of Survivors/# of Treated on Day +21 [5, 6]: 10/10
- % T/C Day 7 [5, 7]: 80%
- % T/C Day 14 [5, 7]: 93%
- % T/C Day 21 [5, 7]: 92%
- Relative Tumor Growth Day 7 [5, 7]: 1.55
- Relative Tumor Growth Day 14 [5, 7]: 3.00
- Relative Tumor Growth Day 21 [5, 7]: 9.63
- S/T = # of Survivors/# of Treated on Day +21 [5, 7]: 8/10

SMILES: CN(C)c1ccc(-c2nc3c(s2)[C@@H](O)CCC3)cc1 [Example 167, (7S)-2-[4-(dimethylamino)phenyl]-4,5,6,7-tetrahydro-1,3-benzothiazol-7-ol]
- % T/C Day 8 ([1]; 25 mg/kg/dose PO): 61%
- % T/C Day 15 ([1]; 25 mg/kg/dose PO): 68%
- % T/C Day 22 ([1]; 25 mg/kg/dose PO): 113%
- Relative Tumor Growth Day 8 ([1]; 25 mg/kg/dose PO): 3.18
- Relative Tumor Growth Day 15 ([1]; 25 mg/kg/dose PO): 8.38
- Relative Tumor Growth Day 22 ([1]; 25 mg/kg/dose PO): 24.80
- % T/C Day 8 ([1]; 50 mg/kg/dose PO): 50%
- % T/C Day 15 ([1]; 50 mg/kg/dose PO): 62%
- % T/C Day 22 ([1]; 50 mg/kg/dose PO): 71%
- Relative Tumor Growth Day 8 ([1]; 50 mg/kg/dose PO): 2.62
- Relative Tumor Growth Day 15 ([1]; 50 mg/kg/dose PO): 7.61
- Relative Tumor Growth Day 22 ([1]; 50 mg/kg/dose PO): 15.56
- IC50 [2]: 60 µM
- Selectivity Ratio D8 [2]: 2
- IC50 [3]: 70.7 µM
- Selectivity Ratio F3 [3]: 1
- IC50 [4]: 100 µM
- % T/C Day 7 [5, 6]: 46%
- % T/C Day 14 [5, 6]: 61%
- % T/C Day 21 [5, 6]: 61%
- Relative Tumor Growth Day 7 [5, 6]: 0.89
- Relative Tumor Growth Day 14 [5, 6]: 1.96
- Relative Tumor Growth Day 21 [5, 6]: 6.39
- S/T = # of Survivors/# of Treated on Day +21 [5, 6]: 5/5
